Measured values from patent US12090164B2, “Genotype-agnostic rescue of cystic fibrosis with small molecule bicarbonate channels” (The Board of Trustees of the University of Illinois, priority 2017, dated 2024).
Entries after “also recorded” stand apart in the source; their conditions may differ.

Assays:
[1] = aerosolized NaHCO3; cited from earlier work
[2] = system: CuFi-1 epithelia; assay: ASL height by confocal microscopy; format: cell-based, human
Protocol: (§1) ASL height was studied using an established fluorescent dye assay (60, 61). Small diameter NuLi and CuFi-1 cultured epithelia were used for this experiment (0.33 cm^2). 24 hours prior to the start of experiment, the apical side of all cultured epithelia was rinsed three times with warm PBS to remove excess mucus. NuLi epithelia were treated with perfluorocarbon (FC-72) vehicle or 500 µM basolateral bumetanide in DMSO vehicle applied to the media, and CuFi epithelia were treated with 20 μL vehicle, 0.005, 0.5, or 50 μM AmB, or 0.5 μM C35deOAmB suspended in perfluorocarbon (FC-72, Sigma), with or without 500 μM basolateral bumetanide in DMSO vehicle applied to the media and incubated for 24 hours at 37° C. After 24 hours, 2.5 μL of a 2 mg/mL 70 kDa Texas Red-dextran conjugate (Molecular Probes) solution in PBS was added to the apical side of the epithelia, followed by 100 μL of FC-770 to prevent evaporation. Then the culture support was placed on top of 100 μL of PBS on a 10 mm glass bottom Fluorodish for imaging (World Precision Instruments). Epithelia were imaged immediately after dye addition and again at 24 hours to examine dye absorption. Three Z-stack images per membrane were taken on an Zeiss LSM700 confocal microscope at 40× oil immersion. These images were analyzed using ImageJ (62) to determine the average ASL height in the center 1300 pixels of each image. Images were smoothed, converted to 8-bit, and thresholded to most accurately represent the red area. The parameters for Analyze Particles were particles from 1-Infinity μm^2 in size and from 0%-100% circularity. Height was determined by dividing the area output in pixels by the known 1300 pixel width and converted to microns using the known scaling factor of 0.49 µm/pixel.

[3] = system: NuLi epithelia; assay: ASL height by confocal microscopy; format: cell-based, human; conditions: bumetanide 500 μM
Protocol: as §1

[4] = system: CuFi-1 (ΔF508/ΔF508) epithelia; assay: ASL pH in cultured CF airway epithelia (SNARF-dextran); format: cell-based, human; conditions: for ASL pH, apical addition: AmB or C35deOAmB 2 μM, ivacaftor/forskolin 10 μM, 2 h, vs vehicle
Protocol: (§2) Small diameter NuLi, CuFi, and primary cultured epithelia were used for this experiment (0.33 cm^2). The ratiometric pH indicator SNARF-conjugated dextran (Molecular Probes) was used to measure ASL pH. SNARF powder was suspended via sonication in perfluorocarbon (FC-72, Sigma) and distributed onto the apical surface. ASL pH was measured 2 hr later (3, 4, 25). SNARF was excited at 488 nm and emission was recorded at 580 nm and 640 nm using a Zeiss LSM 800 microscope at 40× water immersion for cell line cultures and a Zeiss LSM 510 microscope for primary cultures. To generate a standard curve for pH determination, SNARF was dissolved in colorless pH standards and fluorescence ratios were converted to pH.
(§3) Agents tested in this assay were first lyophilized into powder and then suspended in the appropriate volume of perfluorocarbon (FC-72, Sigma) and sonicated for 1 minute to suspend. AmBisome should not be sonicated; instead, the fine powder was suspended by vortexing.
(§4) In all experiments, ASL pH of compound-treated epithelia was measured compared the results to vehicle-treated epithelia.
(§5) For apical AmB administration, cultured airway epithelia were incubated for 30 min-48 hrs at 37° C. before measurement of ASL pH. For AmB-cholesterol complex and C35deOAmB administration, cultured airway epithelia were incubated for 48 hrs at 37° C. before measurement of ASL pH. To test the effect of […] ATPase inhibition, AmB was administered 47 hours prior to 10 mM ouabain addition, and cultured airway epithelia were incubated for an additional 1 hr at 37° C. before measurement of ASL pH. For 10 μM ivacaftor/10 μM forskolin administration, cultured airway epithelia were incubated for 2 hrs at 37° C. before measurement of ASL pH (25). For basolateral AmB administration, a 2 mM stock of AmB in DMSO was diluted 1000-fold to a final concentration of 2 μM in USG media. The basolateral media of cultured airway epithelia was replaced with the AmB-containing USG media and incubated for 48 hrs at 37° C. before measurement of ASL pH.

[5] = system: CuFi-4 (G551D/ΔF508) epithelia; assay: as above; format: cell-based, human
Protocol: as §2, §3, §4, §5

[6] = target: V520F allele (Homo sapiens, UniProt P13569, V520F); conditions: V520F allele (D259G/V520F); cited from earlier work
[7] = system: CF epithelia that lack a G551D or similar allele; conditions: cited from earlier work
[8] = system: CF patients having at least one G551D allele; conditions: clinical trials; cited from earlier work
[9] = system: CuFi-1 (ΔF508/ΔF508) epithelia; assay: Basolateral to apical H14CO3- transport; format: cell-based, human; conditions: for basolateral to apical H^14CO3^− transport, apical addition: over 10 minutes, AmB or C35deOAmB 2 μM, ivacaftor/forskolin 10 μM
Protocol: (§6) Small diameter NuLi and CuFi cultured epithelia were used for this experiment (0.33 cm^2). ^14C-labeled sodium HCO3^− was obtained as a sterile 35.7 mM aqueous solution pH 9.5 (MP Biomedicals 0117441H). All experiments were run less than 2 months post seeding. Fresh USG media was added to the basolateral side prior to experimentation. The apical membrane was treated with 20 μL of vehicle, AmB, or ivacaftor/forskolin as a suspension in perfluorocarbon-72 (Sigma Aldrich), and the cultured epithelia were incubated for 48 hours, 7 days, 14 days, or 28 days at 37° C. in a 5% C02 atmosphere. After the end of the treatment period, 5 μL of a 1.4 mM H^14CO3^− stock solution in USG media was added to the basolateral media. The cultured epithelia were then incubated at 37° C. for 10 minutes. After 10 minutes, the apical membrane of the cultured epithelia was immediately washed with 200 μL of PBS. The ASL wash and a 200 μL aliquot of the basolateral media were diluted in scintillation cocktail and analyzed via liquid scintillation counting (23).

[10] = system: CuFi-4 (G551D/ΔF508) epithelia; assay: Basolateral to apical H14CO3- transport; format: cell-based, human; conditions: AmB 2 μM, ivacaftor/forskolin 10 μM
Protocol: as §6

[11] = system: primary sinonasal epithelia from a patient with a G551D mutation; conditions: relative to untreated controls; cited from earlier work
[12] = system: yeast; conditions: cited from earlier work
[13] = system: ASL of primary CF epithelia; Staphylococcus aureus killed; assay: ASL antibacterial activity (S. aureus-coated gold grids); format: cell-based, human; conditions: 2 μM, 48 h
Protocol: Staphylococcus aureus-coated gold grids were used to measure antibacterial activity of airway epithelial cultures (3, 4). Small diameter primary cultured epithelia were used for this experiment (0.33 cm^2). Bacteria-coated gold TEM grids were placed onto the apical surface of airway epithelia for 1 min after 48 hours of perfluorocarbon (FC-72, Sigma), 2 μM AmB, or 2 μM C35deOAmB treatment. As controls, bacteria-coated grids were also placed in saline or AmB in FC-72 laid over saline to simulate the administration method for 1 minute. After removal, bacteria on the grids were assessed for viability using Live/Dead BacLight Bacterial Viability assay (Invitrogen). Viability was determined in 4-6 fields to determine the percentages of dead bacteria.

[14] = system: protein ion channel-deficient yeast; conditions: cited from earlier work
[15] = system: CuFi-1 (ΔF508/ΔF508) airway epithelia; assay: Ussing chamber permeabilization of differentiated CF airway epithelia; format: cell-based, human; conditions: differentiated CuFi-1 epithelia
Protocol: A series of natural products and synthetic compounds reported previously to permeabilize liposomes, cells, and/or nasal epithelia of mice to anions (11-14) were tested using an Ussing chamber and differentiated cultures of airway epithelia derived from an immortalized airway epithelial cell line from a CF patient having the most common ΔF508/ΔF508 genotype (CuFi-1) (15). […] The capacity for AmB and C35deOAmB to transport bicarbonate across cholesterol-containing POPC liposomes was tested using an adapted ^13C NMR-based assay (18).

[16] = system: primary cultured airway epithelia derived from humans with CF; assay: ASL pH in primary cultured airway epithelia from CF donors; format: cell-based, human; conditions: 9 donors, 2 μM, 48 h
Protocol: Airway epithelial cells were obtained from human trachea and bronchi of CF and non-CF specimens obtained from the Iowa Donor Network, either as post-mortem specimens or from tissue deemed not fit for transplant. Studies were approved by the University of Iowa Institutional Review Board. After pronase enzymatic digestion, cells were seeded onto collagen-coated semi-permeable membranes (0.33-1.12 cm^2, Corning 3470 polyester, 3460 polyester, 3413 polycarbonate) and grown at an air-liquid interface (52). Airway epithelial cell cultures were analyzed after they had differentiated and at least 14 days post-seeding.
as §2, §3, §4, §5

V520F allele, sequence (P13569 whole entry V520F): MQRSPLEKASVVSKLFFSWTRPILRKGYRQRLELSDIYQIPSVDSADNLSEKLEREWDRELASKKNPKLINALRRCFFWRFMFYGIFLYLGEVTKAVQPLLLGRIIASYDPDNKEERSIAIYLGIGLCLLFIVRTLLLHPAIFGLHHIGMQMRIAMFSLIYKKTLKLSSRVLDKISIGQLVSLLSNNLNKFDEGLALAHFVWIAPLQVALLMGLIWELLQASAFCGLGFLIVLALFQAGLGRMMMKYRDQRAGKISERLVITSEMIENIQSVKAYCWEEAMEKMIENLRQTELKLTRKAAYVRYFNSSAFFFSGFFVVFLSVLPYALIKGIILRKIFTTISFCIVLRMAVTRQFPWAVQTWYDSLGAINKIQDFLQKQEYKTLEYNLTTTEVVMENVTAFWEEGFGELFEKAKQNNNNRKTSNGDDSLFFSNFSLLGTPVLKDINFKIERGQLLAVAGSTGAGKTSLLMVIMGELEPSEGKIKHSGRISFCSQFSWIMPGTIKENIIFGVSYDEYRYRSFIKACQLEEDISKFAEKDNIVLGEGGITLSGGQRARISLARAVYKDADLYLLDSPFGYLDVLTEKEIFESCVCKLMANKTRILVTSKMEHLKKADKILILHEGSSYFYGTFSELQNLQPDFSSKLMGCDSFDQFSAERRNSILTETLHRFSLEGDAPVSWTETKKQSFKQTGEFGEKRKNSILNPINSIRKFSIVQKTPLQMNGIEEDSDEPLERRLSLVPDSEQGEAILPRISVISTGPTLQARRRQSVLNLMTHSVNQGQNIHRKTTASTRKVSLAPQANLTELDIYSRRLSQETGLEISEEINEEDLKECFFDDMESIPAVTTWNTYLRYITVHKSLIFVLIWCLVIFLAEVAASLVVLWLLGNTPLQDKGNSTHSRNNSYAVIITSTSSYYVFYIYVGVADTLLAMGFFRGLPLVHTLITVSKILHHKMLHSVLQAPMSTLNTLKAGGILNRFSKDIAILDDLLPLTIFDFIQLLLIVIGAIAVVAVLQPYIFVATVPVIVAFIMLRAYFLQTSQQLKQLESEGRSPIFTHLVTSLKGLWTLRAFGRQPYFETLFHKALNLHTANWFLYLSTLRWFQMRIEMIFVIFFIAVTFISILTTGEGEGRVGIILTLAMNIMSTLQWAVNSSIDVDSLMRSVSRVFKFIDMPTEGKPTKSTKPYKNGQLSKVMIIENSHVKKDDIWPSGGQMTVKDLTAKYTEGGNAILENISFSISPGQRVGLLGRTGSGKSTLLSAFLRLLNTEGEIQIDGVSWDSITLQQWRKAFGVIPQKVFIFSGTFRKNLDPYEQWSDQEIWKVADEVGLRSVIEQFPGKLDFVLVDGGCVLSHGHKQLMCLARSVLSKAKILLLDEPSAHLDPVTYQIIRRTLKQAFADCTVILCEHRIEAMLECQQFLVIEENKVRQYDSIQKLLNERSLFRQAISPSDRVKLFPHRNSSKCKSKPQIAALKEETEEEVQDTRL

## O=C([O-])O.[Na+] [NaHCO3]
[1]
  duration of transient increase in pH: ~15 minutes

## CCCCNc1cc(C(=O)O)cc(S(N)(=O)=O)c1Oc1ccccc1 [bumetanide]
[2]; bumetanide 500 μM
  effect of basolateral bumetanide on AmB-mediated increase in ASL height: abolished the AmB-mediated increase in ASL height
[3]
  ASL height after basolateral bumetanide: decreased ASL height in NuLi epithelia

## CC(C)(C)c1cc(C(C)(C)C)c(NC(=O)c2c[nH]c3ccccc3c2=O)cc1O [ivacaftor]
[4]
  ASL pH, apical addition: showed no increase in ASL pH
[4]; listed as Ivacaftor
  ASL pH, apical addition: failed to increase ASL pH or H^14CO3^− secretion
[4]; listed as ivacaftor/forskolin
  ASL pH, apical addition: an increase in ASL pH was not observed
[5]; AmB 2 μM, ivacaftor/forskolin 10 μM
  increase in ASL pH: 0.2 unit
[5]; apical AmB 2 μM 48 h, ivacaftor/forskolin 10 μM 2 h
  ASL pH: increase ASL pH
[6]
  response to ivacaftor: refractory to treatment with ivacaftor
[7]
  benefit in CF epithelia without G551D: does not show benefit in CF epithelia that lack a G551D or similar allele
[8]
  increase in forced expiratory volume: 10%
  other clinical outcomes: substantially improved body weight, quality of life, and incidence of pulmonary exacerbation; also recorded: improved FEV1
[9]; listed as Ivacaftor
  basolateral to apical H^14CO3^− transport, apical addition: failed to increase ASL pH or H^14CO3^− secretion
[9]; listed as ivacaftor/forskolin
  basolateral to apical H^14CO3^− transport, apical addition: did not
[10]
  H^14CO3^− transepithelial transport: increased the rate of bicarbonate efflux
[10]; listed as ivacaftor/forskolin
  H^14CO3^− transepithelial transport: increase H^14CO3-transepithelial transport
[11]
  decrease in viscosity: about 1.5 units
  increase in ASL pH: 0.20 units

## C35-deoxyamphotericin B [C35deOAmB]
[12]
  toxicity / fungicidal activity to yeast: still maintains potent fungicidal activity
[4]
  ASL pH, apical addition: an increase in ASL pH was not observed; also recorded: No increase in pH was observed; also recorded: did not raise ASL pH or increase H^14CO3^− secretion
[13]
  ASL antibacterial activity (% of S. aureus killed after exposure to ASL): had no effect
[14]
  yeast growth rescue: failed to rescue yeast growth at any tested concentration; also recorded: did not
[15]
  change in short circuit current / permeabilization of epithelia: Little or no permeabilization
[2]; 0.5 μM
  ASL height, apical addition: did not increase ASL height
[9]
  basolateral to apical H^14CO3^− transport, apical addition: did not; also recorded: caused no increase ASL ^14C bicarbonate; also recorded: did not raise ASL pH or increase H^14CO3^− secretion
[16]
  ASL pH, apical addition: did not increase ASL pH

## C[C@@H]1O[C@@H](O[C@H]2C[C@@H](O)[C@]3(CO)[C@H]4[C@H](O)C[C@]5(C)[C@@H](C6=CC(=O)OC6)CC[C@]5(O)[C@@H]4CC[C@]3(O)C2)[C@H](O)[C@H](O)[C@H]1O [ouabain]
[4]; AmB 2 μM 48 h, ouabain 10 mM
  effect of basolateral ouabain on AmB-mediated increase in ASL pH: abrogated; also recorded: abolished
[9]; AmB 2 μM, ouabain 10 mM
  effect of basolateral ouabain on AmB-mediated increase in H^14CO3^− transport: abrogated; also recorded: abolished
